# Laboratory results published in PubChem BioAssay AID1845207 (Molecular Pharmacology Branch, DTP, NCI, 2023).
# System: NCI-H1876 tumor spheroid viability
# Assay: Anticancer human tumor NCI-H1876 cell line growth inhibition;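 note: spheroids exposed to compounds for seven days before the viability read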;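 for viability, T/C: percent of DMSO vehicle control viability so 100% = vehicle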
# Conditions: spheroids with HUVEC and MSC; for IC50: curve of first compound; for viability, T/C: stronger effect = lower value
# In short: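 Single agents and combinations were tested on spheroids built from tumor cells plus HUVEC and hMSC, at half-log dilutions starting at or near clinical Cmax, else 10 microM; final DMSO 0.25% (v/v).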
# [1] = second compound 1 µM, first compound 0.0316 µM
# [2] = second compound 1 µM, first compound 0.1 µM
# [3] = second compound 1 µM, first compound 0.316 µM
# [4] = second compound 1 µM, first compound 1 µM
# [5] = second compound 1 µM, first compound 3.16 µM
# [6] = second compound 1 µM, first compound 10 µM
# [7] = second compound 3.16 µM, first compound 0.0316 µM
# [8] = second compound 3.16 µM, first compound 0.1 µM
# [9] = second compound 3.16 µM, first compound 0.316 µM
# [10] = second compound 3.16 µM, first compound 1 µM
# [11] = second compound 3.16 µM, first compound 3.16 µM
# [12] = second compound 3.16 µM, first compound 10 µM
# [13] = second compound 10 µM, first compound 0.0316 µM
# [14] = second compound 10 µM, first compound 0.1 µM
# [15] = second compound 10 µM, first compound 0.316 µM
# [16] = second compound 10 µM, first compound 1 µM
# [17] = second compound 10 µM, first compound 3.16 µM
# [18] = second compound 10 µM, first compound 10 µM
# [19] = second compound 31.6 µM, first compound 0.0316 µM
# [20] = second compound 31.6 µM, first compound 0.1 µM
# [21] = second compound 31.6 µM, first compound 0.316 µM
# [22] = second compound 31.6 µM, first compound 1 µM
# [23] = second compound 31.6 µM, first compound 3.16 µM
# [24] = second compound 31.6 µM, first compound 10 µM
# [25] = second compound 100 µM, first compound 0.0316 µM
# [26] = second compound 100 µM, first compound 0.1 µM
# [27] = second compound 100 µM, first compound 0.316 µM
# [28] = second compound 100 µM, first compound 1 µM
# [29] = second compound 100 µM, first compound 3.16 µM
# [30] = second compound 100 µM, first compound 10 µM
Structure (SMILES),IC50 (second compound 1 µM) [nM],IC50 (second compound 3.16 µM) [nM],IC50 (second compound 10 µM) [nM],IC50 (second compound 31.6 µM) [nM],IC50 (second compound 100 µM) [nM],"viability, T/C [1] [%]","viability, T/C [2] [%]","viability, T/C [3] [%]","viability, T/C [4] [%]","viability, T/C [5] [%]","viability, T/C [6] [%]","viability, T/C [7] [%]","viability, T/C [8] [%]","viability, T/C [9] [%]","viability, T/C [10] [%]","viability, T/C [11] [%]","viability, T/C [12] [%]","viability, T/C [13] [%]","viability, T/C [14] [%]","viability, T/C [15] [%]",further results
CC(C)n1c(=O)n(C)c2cnc3cc(F)c(-c4ccc(OCCCN5CCCCC5)nc4)cc3c21 + Cn1nnc2c(C(N)=O)ncn2c1=O,411,517,571,623,176,87,68.1,51.6,39.2,27.7,12.1,88.9,70.7,54.7,42.6,29.6,12.8,85.5,68.6,55.4,"viability, T/C [16]: 41.6%; viability, T/C [17]: 36.1%; viability, T/C [18]: 11.4%; viability, T/C [19]: 84.8%; viability, T/C [20]: 72.5%; viability, T/C [21]: 58.7%; viability, T/C [22]: 42.8%; viability, T/C [23]: 29.7%; viability, T/C [24]: 12.8%; viability, T/C [25]: 62.4%; viability, T/C [26]: 55.2%; viability, T/C [27]: 43.2%; viability, T/C [28]: 35.3%; viability, T/C [29]: 25.9%; viability, T/C [30]: 10.2%"
COc1ccc([C@@H](O)c2cc(-c3ncnc4cc(N5CCOCC5)ccc34)c(F)cc2Cl)nn1 + Cn1nnc2c(C(N)=O)ncn2c1=O,1080,1210,1000,970,335,93.8,86.7,74.3,49,29,4.64,97.5,85.2,80,53.7,26.5,4.48,94.4,86.3,72,"viability, T/C [16]: 51%; viability, T/C [17]: 23.5%; viability, T/C [18]: 3.37%; viability, T/C [19]: 90.8%; viability, T/C [20]: 82.2%; viability, T/C [21]: 73.1%; viability, T/C [22]: 47.7%; viability, T/C [23]: 25.1%; viability, T/C [24]: 4.04%; viability, T/C [25]: 48.4%; viability, T/C [26]: 65.8%; viability, T/C [27]: 48.5%; viability, T/C [28]: 36.1%; viability, T/C [29]: 17.8%; viability, T/C [30]: 2.3%"
